The text below walks through data of patent publication US10022355B2, “Diaryl and arylheteroaryl urea derivatives as modulators of the 5-HT2A serotonin receptor useful for the prophylaxis and treatment of REM sleep behavior disorder” (Axovant Sciences GmbH, priority 2015, dated 2018).

The conditions of series [1]: elderly patients; cited from earlier work.
The nature of series [2]: Completed Phase 1 and Phase 2 clinical studies of nelotanserin (originally for primary insomnia). Format: in vivo, human. On the procedure: Nelotanserin: Nelotanserin (RVT-102), previously known as APD-125, is a potent and selective 5HT2a receptor inverse agonist, and is currently being developed as an oral treatment for REM sleep behavior disorder in patients with DLB. Originally being developed for primary insomnia, seven clinical studies have been completed to date that included five Phase 1 and two Phase 2 studies, and 792 individuals have been exposed to nelotanserin over the dose range of 20 to 160 mg and up to 14 days.

Entries after “also recorded” stand apart in the source; their conditions may differ.

Take `O=C1CN=C(c2ccccc2Cl)c2cc([N+](=O)[O-])ccc2N1` [Clonazepam, clonazepam]: the side effects entry in series [1] was “confusion, daytime sedation, and increased risk of falls”.

On to `COc1ccc(NC(=O)Nc2ccc(F)cc2F)cc1-c1c(Br)cnn1C` [nelotanserin], for which, in series [2] (Phase 1 and Phase 2 studies), the “sleep maintenance and consolidation” value was “improves sleep maintenance and consolidation”; the slow wave sleep result was “increases slow wave sleep”. Besides, in series [2] (five Phase 1 and two Phase 2 studies, 792 individuals exposed, dose range 20 to 160 mg, up to 14 days), the “safety and tolerability profile” value was “favorable safety and tolerability profile; also recorded: acceptable safety and tolerability profile”. Moreover, the “number of sleep phase transitions” value in series [2] (previous clinical studies) was “reduces the number of sleep phase transitions”.
